Measurements published in PubChem BioAssay AID1259407 (Chemical Carcinogenesis Research Information System (CCRIS), 2018).
Calls of active or inactive are those of the source. No rule for the calls is given here.

System: CCRIS mutagenicity, Ames/micronucleus/aberration tests
Assay: CCRIS mutagenicity studies
[1] = Test System: AMES SALMONELLA TYPHIMURIUM, Strain/Indicator: TA1535, Metabolic Activation: NONE, Method: PREINCUBATION
[2] = Test System: AMES SALMONELLA TYPHIMURIUM, Strain/Indicator: TA1535, Metabolic Activation: RAT, LIVER, S-9, AROCLOR 1254, Method: PREINCUBATION
[3] = Test System: AMES SALMONELLA TYPHIMURIUM, Strain/Indicator: TA1537, Metabolic Activation: NONE, Method: PREINCUBATION
[4] = Test System: AMES SALMONELLA TYPHIMURIUM, Strain/Indicator: TA1537, Metabolic Activation: RAT, LIVER, S-9, AROCLOR 1254, Method: PREINCUBATION
[5] = Test System: AMES SALMONELLA TYPHIMURIUM, Strain/Indicator: TA98, Metabolic Activation: NONE, Method: PREINCUBATION
[6] = Test System: AMES SALMONELLA TYPHIMURIUM, Strain/Indicator: TA100, Metabolic Activation: NONE, Method: PREINCUBATION

## CC(C(=O)O)c1ccc2c(c1)[nH]c1ccc(Cl)cc12 (centres undefined)
Test System: AMES SALMONELLA TYPHIMURIUM, Strain/Indicator: TA98, Metabolic Activation: RAT, LIVER, S-9, PCB, Method: STANDARD PLATE
  mutagenic call: inactive; negative
Test System: AMES SALMONELLA TYPHIMURIUM, Strain/Indicator: TA100, Metabolic Activation: RAT, LIVER, S-9, PCB, Method: STANDARD PLATE
  mutagenic call: inactive; negative
Test System: AMES SALMONELLA TYPHIMURIUM, Strain/Indicator: TA1537, Metabolic Activation: RAT, LIVER, S-9, PCB, Method: STANDARD PLATE
  mutagenic call: inactive; negative
Test System: AMES SALMONELLA TYPHIMURIUM, Strain/Indicator: TA1538, Metabolic Activation: RAT, LIVER, S-9, PCB, Method: STANDARD PLATE
  mutagenic call: inactive; negative
Test System: E. COLI, Strain/Indicator: WP2 UVRA, Metabolic Activation: RAT, LIVER, S-9, PCB, Method: STANDARD PLATE
  mutagenic call: inactive; negative

## CN(N)C=O
[1]
  mutagenic call: inactive; negative
[2]
  mutagenic call: inactive; negative
[3]
  mutagenic call: inactive; negative
[4]
  mutagenic call: inactive; negative

## CC(C)CCCCCOC(=O)C[S][Sn]([CH3])([S]CC(=O)OCCCCCC(C)C)[S]CC(=O)OCCCCCC(C)C
Test System: AMES SALMONELLA TYPHIMURIUM, Strain/Indicator: TA97, Metabolic Activation: HAMSTER, LIVER, S-9, AROCLOR 1254 (10%), Method: PREINCUBATION
  mutagenic call: inactive; negative
Test System: AMES SALMONELLA TYPHIMURIUM, Strain/Indicator: TA97, Metabolic Activation: HAMSTER, LIVER, S-9, AROCLOR 1254 (30%), Method: PREINCUBATION
  mutagenic call: inactive; negative
Test System: AMES SALMONELLA TYPHIMURIUM, Strain/Indicator: TA97, Metabolic Activation: NONE, Method: PREINCUBATION
  mutagenic call: inactive; negative
Test System: AMES SALMONELLA TYPHIMURIUM, Strain/Indicator: TA97, Metabolic Activation: RAT, LIVER, S-9, AROCLOR 1254 (10%), Method: PREINCUBATION
  mutagenic call: inactive; negative
Test System: AMES SALMONELLA TYPHIMURIUM, Strain/Indicator: TA97, Metabolic Activation: RAT, LIVER, S-9, AROCLOR 1254 (30%), Method: PREINCUBATION
  mutagenic call: inactive; negative
Test System: AMES SALMONELLA TYPHIMURIUM, Strain/Indicator: TA98, Metabolic Activation: HAMSTER, LIVER, S-9, AROCLOR 1254 (10 OR 30%), Method: PREINCUBATION
  mutagenic call: inactive; negative
[5]
  mutagenic call: inactive; negative
Test System: AMES SALMONELLA TYPHIMURIUM, Strain/Indicator: TA98, Metabolic Activation: RAT, LIVER, S-9, AROCLOR 1254 (10 OR 30%), Method: PREINCUBATION
  mutagenic call: inactive; negative
Test System: AMES SALMONELLA TYPHIMURIUM, Strain/Indicator: TA100, Metabolic Activation: HAMSTER, LIVER, S-9, AROCLOR 1254 (10 OR 30%), Method: PREINCUBATION
  mutagenic call: inactive; negative
[6]
  mutagenic call: inactive; negative
Test System: AMES SALMONELLA TYPHIMURIUM, Strain/Indicator: TA100, Metabolic Activation: RAT, LIVER, S-9, AROCLOR 1254 (10 OR 30%), Method: PREINCUBATION
  mutagenic call: inactive; negative
Test System: AMES SALMONELLA TYPHIMURIUM, Strain/Indicator: TA1535, Metabolic Activation: HAMSTER, LIVER, S-9, AROCLOR 1254 (10%), Method: PREINCUBATION
  mutagenic call: inactive; negative
Test System: AMES SALMONELLA TYPHIMURIUM, Strain/Indicator: TA1535, Metabolic Activation: HAMSTER, LIVER, S-9, AROCLOR 1254 (30%), Method: PREINCUBATION
  mutagenic call: inactive; negative
[1]
  mutagenic call: inactive; negative
Test System: AMES SALMONELLA TYPHIMURIUM, Strain/Indicator: TA1535, Metabolic Activation: RAT, LIVER, S-9, AROCLOR 1254 (10%), Method: PREINCUBATION
  mutagenic call: inactive; negative
Test System: AMES SALMONELLA TYPHIMURIUM, Strain/Indicator: TA1535, Metabolic Activation: RAT, LIVER, S-9, AROCLOR 1254 (30%), Method: PREINCUBATION
  mutagenic call: inactive; negative
Test System: AMES SALMONELLA TYPHIMURIUM, Strain/Indicator: TA1537, Metabolic Activation: HAMSTER, LIVER, S-9, AROCLOR 1254 (30%), Method: PREINCUBATION
  mutagenic call: inactive; negative
[3]
  mutagenic call: inactive; negative
Test System: AMES SALMONELLA TYPHIMURIUM, Strain/Indicator: TA1537, Metabolic Activation: RAT, LIVER, S-9, AROCLOR 1254 (30%), Method: PREINCUBATION
  mutagenic call: inactive; negative

## Clc1ccc2oc3ccccc3c2c1
Test System: AMES SALMONELLA TYPHIMURIUM, Strain/Indicator: TA98, Metabolic Activation: NONE, Method: STANDARD PLATE
  mutagenic call: active; positive
Test System: AMES SALMONELLA TYPHIMURIUM, Strain/Indicator: TA98, Metabolic Activation: RAT, LIVER, S-9, PHENOBARBITAL AND NAPHTHOFLAVONE, Method: STANDARD PLATE
  mutagenic call: active; positive
Test System: AMES SALMONELLA TYPHIMURIUM, Strain/Indicator: TA100, Metabolic Activation: NONE, Method: STANDARD PLATE
  mutagenic call: inactive; negative
Test System: AMES SALMONELLA TYPHIMURIUM, Strain/Indicator: TA100, Metabolic Activation: RAT, LIVER, S-9, PHENOBARBITAL AND NAPHTHOFLAVONE, Method: STANDARD PLATE
  mutagenic call: inactive; negative

## CC1CS1 (centres undefined)
Test System: AMES SALMONELLA TYPHIMURIUM, Strain/Indicator: TA98, Metabolic Activation: HAMSTER, LIVER, S-9, AROCLOR 1254, Method: PREINCUBATION
  mutagenic call: inactive; negative
[5]
  mutagenic call: inactive; negative
Test System: AMES SALMONELLA TYPHIMURIUM, Strain/Indicator: TA98, Metabolic Activation: RAT, LIVER, S-9, AROCLOR 1254, Method: PREINCUBATION
  mutagenic call: inactive; negative
Test System: AMES SALMONELLA TYPHIMURIUM, Strain/Indicator: TA100, Metabolic Activation: HAMSTER, LIVER, S-9, AROCLOR 1254, Method: PREINCUBATION
  mutagenic call: inactive; negative
[6]
  mutagenic call: inactive; negative
Test System: AMES SALMONELLA TYPHIMURIUM, Strain/Indicator: TA100, Metabolic Activation: RAT, LIVER, S-9, AROCLOR 1254, Method: PREINCUBATION
  mutagenic call: inactive; negative
Test System: AMES SALMONELLA TYPHIMURIUM, Strain/Indicator: TA1535, Metabolic Activation: HAMSTER, LIVER, S-9, AROCLOR 1254, Method: PREINCUBATION
  mutagenic call: inactive; negative
[1]
  mutagenic call: inactive; negative
[2]
  mutagenic call: inactive; negative
Test System: AMES SALMONELLA TYPHIMURIUM, Strain/Indicator: TA1537, Metabolic Activation: HAMSTER, LIVER, S-9, AROCLOR 1254, Method: PREINCUBATION
  mutagenic call: inactive; negative
[3]
  mutagenic call: inactive; negative
[4]
  mutagenic call: inactive; negative
Test System: AMES SALMONELLA TYPHIMURIUM, Strain/Indicator: TA1538, Metabolic Activation: HAMSTER, LIVER, S-9, AROCLOR 1254, Method: PREINCUBATION
  mutagenic call: inactive; negative
Test System: AMES SALMONELLA TYPHIMURIUM, Strain/Indicator: TA1538, Metabolic Activation: NONE, Method: PREINCUBATION
  mutagenic call: inactive; negative
Test System: AMES SALMONELLA TYPHIMURIUM, Strain/Indicator: TA1538, Metabolic Activation: RAT, LIVER, S-9, AROCLOR 1254, Method: PREINCUBATION
  mutagenic call: inactive; negative
Test System: MOUSE LYMPHOMA, Strain/Indicator: L5178Y (TK+/TK-), Metabolic Activation: NONE, Method: SUSPENSION/PLATE
  mutagenic call: active; positive. reevaluation of results: positive
Test System: Mouse lymphoma, Strain/Indicator: L5178Y (tk+/tk-), Metabolic Activation: Rat, Liver, S-9, Aroclor 1254, Method: Suspension/plate
  mutagenic call: active; equivocal (previous evaluation positive)
